Experimental data reported in ChEMBL document CHEMBL1201862, “PubChem BioAssay data set” (2004).
Activity calls are given as the source filed them.

Key:
[1] = test system: Streptococcus sp. 'group A'; test: Streptococcus pyogenes SK(-)GAS viability under kanamycin – luminescence, BacTiterGlo, confirmation, counter-screen for streptokinase expression inhibitor project, dose response (AID 1900); type: functional, organism-based
[2] = NIH-3T3 fibroblast cytotoxicity, dose response, cytotoxicity control, cell-based, fluorescence, Alamar Blue, secondary assay (AID 2327); type: functional;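 also: NIH-3T3 mouse fibroblasts cultured with fluconazole at 8 µg/mL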
[3] = target: ATP-dependent molecular chaperone HSP82 (Candida albicans (strain WO-1) (Yeast), UniProt C4YTQ8); test: steroid-induced GRE reporter decrease in yeast – S. cerevisiae, luminescence, Hsp90 inhibitor project, dose response (AID 2400); type: functional, cell-based;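 also: beta-galactosidase luminescence from glucocorticoid response element reporter as proxy for Hsp90 function; inhibitor potency where signal loss means Hsp90 inhibition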
ATP-dependent molecular chaperone HSP82, sequence (C4YTQ8 whole entry): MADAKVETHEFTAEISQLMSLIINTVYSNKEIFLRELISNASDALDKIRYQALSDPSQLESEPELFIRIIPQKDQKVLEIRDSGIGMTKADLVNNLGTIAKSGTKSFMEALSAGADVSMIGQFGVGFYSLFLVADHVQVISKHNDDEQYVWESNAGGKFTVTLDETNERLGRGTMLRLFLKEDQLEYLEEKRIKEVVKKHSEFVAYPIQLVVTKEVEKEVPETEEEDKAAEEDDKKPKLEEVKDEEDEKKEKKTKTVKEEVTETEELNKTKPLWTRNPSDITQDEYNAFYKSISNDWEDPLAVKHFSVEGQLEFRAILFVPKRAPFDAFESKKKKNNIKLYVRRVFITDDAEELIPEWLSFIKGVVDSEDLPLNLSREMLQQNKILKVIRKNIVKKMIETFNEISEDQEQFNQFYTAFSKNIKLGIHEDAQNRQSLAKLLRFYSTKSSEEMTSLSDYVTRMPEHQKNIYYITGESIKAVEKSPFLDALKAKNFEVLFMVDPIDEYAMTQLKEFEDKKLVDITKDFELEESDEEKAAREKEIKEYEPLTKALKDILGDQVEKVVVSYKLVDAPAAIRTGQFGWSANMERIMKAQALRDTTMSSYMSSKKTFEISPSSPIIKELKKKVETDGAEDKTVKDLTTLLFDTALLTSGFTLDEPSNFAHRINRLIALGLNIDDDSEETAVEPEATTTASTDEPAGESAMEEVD

Streptokinase A = target: T1, Streptokinase A (Streptococcus pyogenes serotype M1, UniProt P10520); test: viability-normalized secreted streptokinase activity reduction – plasminogen activation absorbance, OD405, dose response (AID 1914); type: functional, Streptococcus pyogenes M1 GAS;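 also: secreted streptokinase activity via plasminogen activation per viability signal from cell pellet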
T1 sequence (P10520 whole entry): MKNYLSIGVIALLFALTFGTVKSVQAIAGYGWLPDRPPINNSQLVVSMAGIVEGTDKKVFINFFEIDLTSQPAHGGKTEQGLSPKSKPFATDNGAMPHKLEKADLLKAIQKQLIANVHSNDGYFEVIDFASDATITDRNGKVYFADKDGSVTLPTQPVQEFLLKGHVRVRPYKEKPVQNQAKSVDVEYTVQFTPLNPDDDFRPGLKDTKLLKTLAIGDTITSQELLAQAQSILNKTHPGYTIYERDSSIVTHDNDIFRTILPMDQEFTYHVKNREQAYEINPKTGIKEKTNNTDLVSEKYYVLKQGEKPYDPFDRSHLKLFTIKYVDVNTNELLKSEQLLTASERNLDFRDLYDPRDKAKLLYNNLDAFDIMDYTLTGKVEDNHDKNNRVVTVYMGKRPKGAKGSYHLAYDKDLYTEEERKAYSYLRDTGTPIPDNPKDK

[4] = Vero E6 cell cytotoxicity, dose response, cytotoxicity control for non-replicating M. tuberculosis project, secondary assay (AID 492998); type: functional, VeroE6; details: Vero C1008
[5] = THP-1 cell cytotoxicity, dose response, cytotoxicity control for non-replicating M. tuberculosis project (AID 489025); type: functional
[6] = target: T2, Serine/threonine-protein phosphatase (Candida dubliniensis (strain CD36 / CBS 7987 / NCPF 3949 / NRRLY-17841) (Yeast), UniProt B9W6M3); test: blockers of CaCl2-induced CDRE-lacZ signaling – S. cerevisiae, luminescence, secondary, dose response (AID 2388); type: functional, cell-based;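 also: yeast reporter cells carrying a calcineurin-responsive lacZ construct stimulated with calcium chloride; luminescent beta-galactosidase reporter signal in whole cells rather than isolated phosphatase activity; potency for inhibition where a drop in reporter signal means calcineurin blockade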
T2 sequence (B9W6M3 whole entry): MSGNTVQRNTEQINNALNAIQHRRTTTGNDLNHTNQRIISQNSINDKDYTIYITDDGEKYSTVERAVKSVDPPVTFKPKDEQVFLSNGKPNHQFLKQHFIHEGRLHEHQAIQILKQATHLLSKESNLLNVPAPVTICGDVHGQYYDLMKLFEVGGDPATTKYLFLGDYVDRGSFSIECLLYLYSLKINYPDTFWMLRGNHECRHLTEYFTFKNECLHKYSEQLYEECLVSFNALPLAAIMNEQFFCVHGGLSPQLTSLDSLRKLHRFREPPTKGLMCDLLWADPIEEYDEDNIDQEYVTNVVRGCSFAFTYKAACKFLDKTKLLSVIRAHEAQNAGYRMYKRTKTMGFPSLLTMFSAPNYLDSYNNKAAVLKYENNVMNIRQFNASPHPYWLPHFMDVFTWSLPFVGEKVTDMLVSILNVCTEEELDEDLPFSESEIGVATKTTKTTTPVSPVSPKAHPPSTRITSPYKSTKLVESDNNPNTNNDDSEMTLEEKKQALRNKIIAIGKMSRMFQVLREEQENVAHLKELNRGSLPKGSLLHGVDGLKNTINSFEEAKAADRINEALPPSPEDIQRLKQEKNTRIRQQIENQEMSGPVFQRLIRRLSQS

[7] = fluconazole-exposed Candida albicans growth modulators – fluorescence, retest, confirmation (AID 2467); type: functional, cell-based
cells = type: functional
Streptococcus = test: GAS UMAA2166 growth inhibition – luminescence, BacTiterGlo, counter-screen for streptokinase expression inhibitor project, dose response (AID 1915); type: functional, organism-based;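 also: potency for reduction of bacterial viability or growth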
[8] = target: FAD-linked sulfhydryl oxidase ALR (Homo sapiens, UniProt P55789); test: ALR-catalysed DTT oxidation blockers – biochemical, H2O2 detection, luminescence, cherry-pick, dose response (AID 493248)
FAD-linked sulfhydryl oxidase ALR, sequence (P55789 whole entry): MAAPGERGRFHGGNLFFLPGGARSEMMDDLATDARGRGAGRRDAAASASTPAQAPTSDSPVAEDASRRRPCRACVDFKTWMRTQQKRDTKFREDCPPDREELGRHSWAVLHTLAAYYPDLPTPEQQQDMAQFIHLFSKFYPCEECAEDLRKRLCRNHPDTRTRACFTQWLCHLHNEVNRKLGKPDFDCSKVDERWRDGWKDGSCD

HEK293 = test: cells; type: functional, cell-based; details: Homo sapiens
[9] = target: T3, Nuclear receptor subfamily 0 group B member 1 (Homo sapiens, UniProt P51843); test: Luminescence-based cell-based high throughput dose response assay for inhibitors of the orphan nuclear receptor subfamily 0, group B, member 1 (DAX1; NR0B1). [Related pubchem assays (depositor defined):AID504766, AID504790]; type: functional
T3 sequence (P51843 whole entry): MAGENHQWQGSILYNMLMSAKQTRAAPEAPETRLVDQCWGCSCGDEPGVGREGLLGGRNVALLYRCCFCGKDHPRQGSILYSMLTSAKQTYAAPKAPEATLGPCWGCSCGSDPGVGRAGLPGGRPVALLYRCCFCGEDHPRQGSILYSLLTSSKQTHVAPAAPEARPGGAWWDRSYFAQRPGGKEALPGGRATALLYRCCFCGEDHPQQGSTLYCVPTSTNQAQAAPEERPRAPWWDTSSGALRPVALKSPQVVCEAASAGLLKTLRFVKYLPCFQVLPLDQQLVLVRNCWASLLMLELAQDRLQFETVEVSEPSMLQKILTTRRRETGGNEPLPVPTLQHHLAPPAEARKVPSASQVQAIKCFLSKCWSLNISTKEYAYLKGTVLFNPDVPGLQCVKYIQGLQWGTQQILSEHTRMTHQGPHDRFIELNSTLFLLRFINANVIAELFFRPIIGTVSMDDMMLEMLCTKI

Mu-type opioid receptor = Mu-type opioid receptor (Homo sapiens, UniProt P35372); test: Counterscreen for agonists of heterodimerization of the mu 1 (OPRM1) and delta 1 (OPRD1) opioid receptors: Luminescence-based cell-based high throughput dose response assay to identify agonists of OPRM1 homodimerization.; type: functional;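 also: U2OS cells expressing OPRM1 and beta-arrestin as split beta-galactosidase partners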
Mu-type opioid receptor, sequence (P35372 whole entry): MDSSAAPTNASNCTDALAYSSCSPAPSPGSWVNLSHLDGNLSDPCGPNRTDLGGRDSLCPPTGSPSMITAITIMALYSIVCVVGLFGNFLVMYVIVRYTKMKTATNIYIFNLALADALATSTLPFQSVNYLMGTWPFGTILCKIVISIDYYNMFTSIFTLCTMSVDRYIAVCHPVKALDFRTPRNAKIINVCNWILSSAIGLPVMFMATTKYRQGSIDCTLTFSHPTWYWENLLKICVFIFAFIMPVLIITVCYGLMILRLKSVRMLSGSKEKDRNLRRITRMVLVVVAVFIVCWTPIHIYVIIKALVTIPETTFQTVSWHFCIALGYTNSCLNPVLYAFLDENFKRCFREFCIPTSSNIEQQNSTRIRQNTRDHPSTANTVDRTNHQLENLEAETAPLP

[10] = target: 5-hydroxytryptamine receptor 5A (Homo sapiens, UniProt P47898); test: Counterscreen for agonists of OPRM1-OPRD1 heterodimerization: luminescence-based cell-based high throughput dose response assay to identify agonists of 5-hydroxytryptamine (serotonin) 5A receptor (HTR5A). [Related pubchem assays (depositor defined):AID504326, AID504355, AID504692, AID504904, AID504905]; type: functional
5-hydroxytryptamine receptor 5A, sequence (P47898 whole entry): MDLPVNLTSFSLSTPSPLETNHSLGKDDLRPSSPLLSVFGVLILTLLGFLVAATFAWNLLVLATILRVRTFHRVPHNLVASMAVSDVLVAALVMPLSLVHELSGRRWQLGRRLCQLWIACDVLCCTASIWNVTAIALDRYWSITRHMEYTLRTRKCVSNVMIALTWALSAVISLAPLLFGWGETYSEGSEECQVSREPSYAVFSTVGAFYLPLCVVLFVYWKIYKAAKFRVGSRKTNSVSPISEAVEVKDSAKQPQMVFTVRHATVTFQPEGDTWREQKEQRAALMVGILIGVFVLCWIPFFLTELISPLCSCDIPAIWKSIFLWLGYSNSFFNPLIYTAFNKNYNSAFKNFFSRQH

[11] = target: Delta-type opioid receptor (Homo sapiens, UniProt P41143); test: Counterscreen for agonists of heterodimerization of the mu 1 (OPRM1) and delta 1 (OPRD1) opioid receptors: Luminescence-based cell-based high throughput dose response assay to identify agonists of OPRD1 homodimerization. [Related pubchem assays (depositor defined):AID504326, AID504355, AID504692, AID504904, AID504905]; type: functional
Delta-type opioid receptor, sequence (P41143 whole entry): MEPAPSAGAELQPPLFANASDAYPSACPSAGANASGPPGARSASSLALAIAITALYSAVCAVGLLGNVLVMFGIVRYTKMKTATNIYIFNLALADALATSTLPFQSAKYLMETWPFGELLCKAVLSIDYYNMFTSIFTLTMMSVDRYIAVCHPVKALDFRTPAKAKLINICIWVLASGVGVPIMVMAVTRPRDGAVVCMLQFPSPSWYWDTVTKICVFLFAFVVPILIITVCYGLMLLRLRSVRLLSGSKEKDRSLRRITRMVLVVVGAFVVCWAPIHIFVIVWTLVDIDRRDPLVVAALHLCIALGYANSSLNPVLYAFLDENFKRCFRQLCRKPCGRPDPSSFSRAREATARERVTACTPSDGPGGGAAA

[12] = reduced cellular PGC1a acetyl-lysine signal – cell-based, cherry-picked samples, dose response (AID 720514); type: functional;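 also: potency may reflect raised or lowered acetylation signal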
[13] = viability of HCT116 lacking mutant beta-catenin – cell-based, human colon tumor, dose response (AID 1045); type: functional;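 also: HCT116 colon tumor cells with beta catenin knocked out; cells exposed to compound for 60 hours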
[14] = viability loss in Vero cells – cytotoxicity control for Vif-APOBEC3G degradation inhibitor project, dose response (AID 1117358); type: functional; details: Vero
[15] = MIN6 cell viability loss – mouse insulinoma, cytotoxicity control, dose response (AID 2122); type: functional;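 also: confirmatory high-throughput counterscreen run to flag cytotoxic compounds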
[16] = viability of PTEN-deleted HCT116 cells – cell-based, HCT116 PTEN knockout, dose response (AID 1047); type: functional;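 also: HCT116 colon tumor cells with PTEN knocked out; cells exposed to compound for 60 hours before readout; potency for loss of cell viability measured by luminescence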
A-375 = test: MITF: Counter assay: A375 proliferation Measured in Cell-Based System Using Plate Reader - 2084-03_Inhibitor_Dose_DryPowder_Activity. [Related pubchem assays (depositor defined):AID488944]; type: functional; details: Homo sapiens
[17] = decrease of insulin promoter-GFP reporter – imaging, high-content screening, mouse beta cells (AID 1628); type: functional; details: MIN6
[18] = target: T4, Microphthalmia-associated transcription factor (Homo sapiens, UniProt O75030); test: reducers of TRPM1 reporter luminescence, concentration series – cell-based, SK-MEL-5, cherry-picked, set 3, MITF inhibitor project, dose response (AID 493073); type: functional;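 also: SK-MEL-5 melanoma cells with luciferase driven by the MITF target TRPM1 promoter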
T4 sequence (O75030 whole entry): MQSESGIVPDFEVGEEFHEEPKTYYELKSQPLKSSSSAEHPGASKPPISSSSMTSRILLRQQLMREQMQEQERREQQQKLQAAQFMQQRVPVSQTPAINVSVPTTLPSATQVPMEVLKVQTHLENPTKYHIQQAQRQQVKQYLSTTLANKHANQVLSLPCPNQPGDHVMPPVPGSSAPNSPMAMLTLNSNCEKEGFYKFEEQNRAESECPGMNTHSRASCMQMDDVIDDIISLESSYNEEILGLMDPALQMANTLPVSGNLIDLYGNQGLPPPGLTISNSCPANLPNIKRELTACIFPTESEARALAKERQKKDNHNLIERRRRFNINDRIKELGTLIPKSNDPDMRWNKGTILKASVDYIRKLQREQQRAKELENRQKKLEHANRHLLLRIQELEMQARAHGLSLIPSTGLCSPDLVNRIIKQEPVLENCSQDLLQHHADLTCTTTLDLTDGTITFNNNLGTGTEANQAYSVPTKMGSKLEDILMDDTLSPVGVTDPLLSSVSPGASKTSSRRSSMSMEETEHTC

[19] = microbe, parasite or virus in culture; type: functional; details: Mycobacterium tuberculosis
Genome polyprotein = Genome polyprotein (dengue virus type 2, UniProt P29990); test: flavivirus cap methylation enzyme inhibition – biochemical, confirmation dose response, primary screen (AID 588689); type: functional
Genome polyprotein, sequence (P29990 2492-3391 limits assumed): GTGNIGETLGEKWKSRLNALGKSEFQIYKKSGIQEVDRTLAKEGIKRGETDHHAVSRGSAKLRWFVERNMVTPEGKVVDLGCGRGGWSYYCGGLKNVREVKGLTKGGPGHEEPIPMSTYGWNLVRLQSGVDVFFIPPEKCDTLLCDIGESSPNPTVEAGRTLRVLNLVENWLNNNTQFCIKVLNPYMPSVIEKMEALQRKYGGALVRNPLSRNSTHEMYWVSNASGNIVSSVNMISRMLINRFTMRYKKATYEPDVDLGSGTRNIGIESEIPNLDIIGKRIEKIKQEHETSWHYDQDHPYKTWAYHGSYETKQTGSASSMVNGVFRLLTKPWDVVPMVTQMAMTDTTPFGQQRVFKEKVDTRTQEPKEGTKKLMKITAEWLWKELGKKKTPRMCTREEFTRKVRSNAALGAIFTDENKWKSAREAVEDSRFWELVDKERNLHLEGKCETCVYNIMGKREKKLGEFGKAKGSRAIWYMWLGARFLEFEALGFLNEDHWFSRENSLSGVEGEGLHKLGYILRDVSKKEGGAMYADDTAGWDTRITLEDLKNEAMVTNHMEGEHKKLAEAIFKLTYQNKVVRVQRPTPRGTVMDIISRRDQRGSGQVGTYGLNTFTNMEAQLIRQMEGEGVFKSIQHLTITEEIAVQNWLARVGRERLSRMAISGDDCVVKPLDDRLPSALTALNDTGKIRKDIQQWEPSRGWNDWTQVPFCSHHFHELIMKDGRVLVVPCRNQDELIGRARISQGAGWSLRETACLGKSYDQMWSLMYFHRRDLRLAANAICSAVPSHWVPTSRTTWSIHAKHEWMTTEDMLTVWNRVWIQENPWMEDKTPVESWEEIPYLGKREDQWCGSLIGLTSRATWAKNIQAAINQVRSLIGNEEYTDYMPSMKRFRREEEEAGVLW

[20] = target: T5, Corticotropin-releasing factor receptor 2/Corticotropin-releasing factor-binding protein (Homo sapiens, UniProt P24387+Q13324); test: activators of CRF receptor 2 with binding protein – uHTS hits, confirmation (AID 602473); type: functional; details: read-out: EC50_Mean
T5 sequence (Q13324 whole entry): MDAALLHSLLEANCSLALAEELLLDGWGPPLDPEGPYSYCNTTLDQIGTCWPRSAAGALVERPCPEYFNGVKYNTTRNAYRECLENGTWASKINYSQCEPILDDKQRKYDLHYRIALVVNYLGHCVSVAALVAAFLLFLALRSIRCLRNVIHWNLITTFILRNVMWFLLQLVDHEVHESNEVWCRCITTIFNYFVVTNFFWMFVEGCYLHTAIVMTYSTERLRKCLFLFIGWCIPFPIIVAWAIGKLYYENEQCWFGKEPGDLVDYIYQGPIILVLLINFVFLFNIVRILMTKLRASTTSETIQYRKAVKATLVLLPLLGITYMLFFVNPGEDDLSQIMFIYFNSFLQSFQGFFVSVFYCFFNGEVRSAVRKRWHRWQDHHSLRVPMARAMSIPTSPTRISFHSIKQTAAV
T5 sequence (P24387 whole entry): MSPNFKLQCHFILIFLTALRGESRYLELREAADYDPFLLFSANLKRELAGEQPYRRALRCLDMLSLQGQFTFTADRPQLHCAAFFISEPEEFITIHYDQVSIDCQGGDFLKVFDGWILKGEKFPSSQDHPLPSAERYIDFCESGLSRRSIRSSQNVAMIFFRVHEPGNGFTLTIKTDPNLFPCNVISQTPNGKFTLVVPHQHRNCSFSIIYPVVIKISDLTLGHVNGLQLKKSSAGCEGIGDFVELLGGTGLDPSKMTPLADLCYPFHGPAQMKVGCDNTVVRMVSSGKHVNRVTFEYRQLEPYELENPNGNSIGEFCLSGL

[21] = target: T5, Corticotropin-releasing factor receptor 2/Corticotropin-releasing factor-binding protein; test: Dose Response confirmation of uHTS hits for small molecule antagonists of the CRF-binding protein and CRF-R2 receptor complex.; type: functional; details: read-out: IC50_Mean

CCCn1nnnc1NC(=O)c1ccc2ccccc2c1
EC50 [1]: 1.59 µM (active) | EC50 [2]: 121 µM (active) | EC50 [3]: 82.2 µM (active) | EC50 (Streptokinase A): > 150 µM (not active) | CC50 [4]: > 20 µM (active) | CC50 [5]: 39.5 µM (active) | EC50 [6]: > 180 µM (inactive) | EC50 [7]: 0.505 µM (active) | IC50 (cells): 0.9 µM (active) | EC50 (Streptococcus): > 150 µM (not active)

COc1ccc(Nc2[nH]nc(N)c2C(N)=O)cc1
AC50 [8]: 2.71 µM (active) | IC50 (HEK293): > 67.5 µM (inactive) | IC50 [9]: > 67.5 µM (inactive)

OCC1(CCc2ccccc2)CCN(Cc2cc(F)ccc2-n2cccn2)CC1
EC50 (Mu-type opioid receptor): > 92.5 µM (inactive) | EC50 [10]: > 92.5 µM (inactive) | EC50 [11]: > 92.5 µM (inactive)

COc1ccc(-c2cc(-c3ccccc3)c(C#N)c([S+](C)[O-])n2)cc1 (centres undefined)
AC50 [12]: 4.89 µM (active) | EC50 [13]: 2.12 µM (active) | CC50 [14]: 31.4 µM (active) | IC50 [15]: 2.76 µM (active) | EC50 [16]: 3.33 µM (active) | AC50 (A-375): 20.2 µM (active) | IC50 [17]: 2.05 µM (active) | AC50 [18]: 11.8 µM (active) | CC50 [19]: 23 µM (active)

COc1ccccc1/C=C1\SC(=S)N(NS(=O)(=O)c2ccccc2)C1=O
EC50 [2]: > 150 µM (inconclusive) | EC50 [3]: 18.2 µM (active) | IC50 (Genome polyprotein): 36.2 µM (active) | EC50 [6]: > 180 µM (inactive) | EC50 [7]: 0.94 µM (active)

CCOC(=O)/C=c1/s/c(=C/c2ccc3cc(OC)ccc3c2)c(=O)n1CC(=O)NCC1CCCO1 (centres undefined)
AC50 (A-375): 29.7 µM (active) | EC50 [20]: 7.75 µM (active) | AC50 [18]: 6.79 µM (active)

C/C(CC(=O)Nc1ccc(Cl)cc1C(F)(F)F)=N\NC(=O)c1cccs1
IC50 (HEK293): > 67.6 µM (inactive) | IC50 [9]: > 67.6 µM (inactive)

Cc1nc(-c2ccncc2)nc(NCCNc2ccc(C(F)(F)F)cn2)c1Cl
IC50 (HEK293): > 67.5 µM (inactive) | IC50 [9]: > 67.5 µM (inactive) | IC50 [21]: > 47.1 µM (inactive) | EC50 [20]: > 53 µM (inactive)
